{"source": "patent US20230398130A1", "about": "“METHODS AND COMPOSITIONS FOR DIFFERENTIATING STEM CELLS” (Massachusetts Institute of Technology, priority 2020, published 2023)", "key": {"[1]": {"system": "ENR-cultured 3D-embedded organoid", "experiment": "384 well-based 3D-embedded organoid screening (ENR, 6 days, FDA approved drug library, 10 μM): Cch-induced lysozyme secretion", "format": "cell-based, murine", "from_the_text": "Leveraging their experience in 2.5D culture organoid screening (Mead, et al., 2020 High-throughput organoid screening enables engineering of intestinal epithelial composition. bioRxiv 2020.04.27.063727; Example 2 and 5), Applicants optimized multiple parameters such as organoid number and density, Matrigel volume, and compound-induced secretion stimulation to detect secreted lysozyme from ENR-cultured 3D-embedded organoid. […] The scheme is shown in FIG. 31; briefly, (1) prepare small organoid fragments by mechanical disruption and culture in ENRCV media for 4 days to grow stem cell-rich organoid, (2) replace media to conventional organoid growth media (ENR) add compounds, and culture for 6 days in total, (3) measure Cch-induced lysozyme secretion and ATP abundance. Based on multiple condition examination results (see FIG. 32 as an example), Applicants concluded that 20 organoids/well and 7 μL Matrigel mixture/well is the reasonable culture condition for 384 well-based screening. Additionally, a Notch signaling inhibitor, DAPT, can be used as a positive control, and stimulating by carbachol helps broaden the window between negative and positive control samples (FIG. 32). Utilizing this newly established platform, Applicants performed 384 well-based high-throughput chemical compound screening, aiming for further identification of PC inducers. […] Applicants prepared duplicates for each sample to increase the reliability and chose a single dose point of drugs (10 μM) to execute the initial screening readily and efficiently while planning to analyze precise dose-responsiveness in the following validation step.\nApplicants analyzed all the data by Python 3 as follows. Log 2 transformed lysozyme-derived fluorescent values were calculated; violin plots of negative and positive controls (FIG. 33) and histograms of samples were shown with respect to each assay plate (FIG. 34). […] To evaluate the compound effects, robust Z-scores were calculated based on the negative controls in each plate, and all results were concatenated. […]"}, "organoid line": {"system": "organoid line", "experiment": "Validation and dose optimization of the FDA library hits: lysozyme secretion normalized to ATP abundance", "format": "cell-based", "conditions": "for lysozyme secretion normalized to ATP: 80 nM, different organoid line; for lysozyme secretion compared with KPT-330: in vitro validation, 80-320 nM", "procedure": "Applicants next validated the initial screening results by the lysozyme secretion assays at four doses from 80 nM to 10 μM. To evaluate the cell-line dependent effect, Applicants utilized a different organoid line, derived from a different animal. DAPT-treated samples were prepared as positive controls, the same as in the screen. Applicants measured ATP abundance simultaneously as a surrogate of cell number and used it for normalizing lysozyme values. […] To further optimize the dose of each drug, Applicants treated with the three compounds at narrower dose range (80-320 nM) and KPT-330, previously identified PC inducer, for comparison."}, "Paneth cells [2]": {"system": "Paneth cells", "experiment": "Flow cytometry of 3D-cultured intestinal organoids (ENR+CD, 6 days): Paneth cell fraction (lysozyme-positive, CD24-mid)", "format": "cell-based, murine", "procedure": "Flow cytometry analysis (3D culture). ISC-enriched organoids cultured in 3D Matrigel with ENRCV media were passaged to 24-well plate in 3D Matrigel with ENRCV. At day zero, media were replaced to ENRCD with or without indicated compounds, and media were replaced every other day. […] Flow cytometry was performed using an LSR Fortessa (BD; Koch Institute Flow Cytometry Core at MIT). The data were analyzed using FlowJo v10 software.\nSingle live cells were selected by several gating strategies and Paneth cells were identified as lysozyme-high, CD24-mid, side scatter-high (SSC-high) (FIG. 27E). […] To evaluate whether the culture media supplements C and D may alter the effects of the 6 hits, Applicants also performed lysozyme assay in the canonical ENR culture condition in 3-D (because Paneth cells exist in an immature state within ENR, Applicants were unable to robustly quantify Paneth cell number via flow cytometry).\n(§1) Flow cytometry. ISC-enriched organoids in 3D Matrigel culture were passaged to a 48-well plate and induced differentiation for 6 days by ENR+CD media containing DMSO or each drug indicated in the figures. DMSO- or drug-containing media were changed every other day. […] After vigorous pipetting and incubation at 37° C. for 15 min, the cell solution was diluted twice with basal media and centrifuged at 300 rcf for 3 min. […] The cell solution was centrifuged again at 300 rcf for 3 min at 4° C. to pellet the cells. […] Cells were centrifuged again for 3 min at 300 rcf and blocked with staining buffer (FACS buffer containing 0.5% Tween20 (Sigma, P2287)) for 15 min at RT in the dark. […] Flow cytometry was performed using an LSR Fortessa (BD; Koch Institute Flow Cytometry Core at MIT). Flow cytometry data were analyzed using FlowJo X v10.6.1 software.\nLive Paneth cells were identified as LYZ-high, CD24-mid, side scatter-high (SSC-high) (FIG. 50F).\nas §1, with “organoids in 3-D Matrigel culture” for “organoids in 3D Matrigel culture”, “to a 24- or 48-well plate” for “to a 48-well plate”"}, "lysozyme (LYZ)": {"system": "lysozyme (LYZ)", "experiment": "Western blotting of lysozyme in 3D-cultured intestinal organoids", "format": "cell-based, murine", "conditions": "organoids cultured 6 days in ENR+CV, ENR+CD or ENR", "from_the_text": "Western blotting. ISC-enriched organoids cultured in 3D Matrigel with ENRCV media were passaged to 24-well plate in 3D Matrigel with ENRCV. At day zero, media were replaced to ENR or ENRCD with or without indicated compounds, and media were replaced every other day. At day six, cells were harvested from Matrigel by mechanical disruption and suspended in basal media. Cell pellets were lysed with Pierce© IP lysis buffer (ThermoFisher, 87787) containing Halt™ Protease Inhibitor Cocktail, EDTA-Free (ThermoFisher, 87785) after 3-minute centrifuge at 300×g at 4° C. Cell extracts were resolved by NuPAGE© SDS-PAGE Gel system (ThermoFisher) and electroblotted onto polyvinylidene difluoride membranes using Criterion™ Blotter (Biorad). The membranes were blocked with 2% Blotting-Grade Blocker (Biorad, 1706404) in TBS-T (50 mM Tris-HCl, 150 mM NaCl, and 0.1% Tween 20, pH 8.0) and then probed with appropriate antibodies. Detection was performed using ECL Select™ Western Blotting Detection Reagent (Amersham, 45-000-999) and ImageQuant LAS4000 (GE Healthcare).\nWestern blotting. Organoid-containing gel was homogenized in basal medium and centrifuged at 300 rcf for 3 min. Organoid pellet was lysed with ice-cold Pierce IP Lysis Buffer (Thermo Fisher Scientific, #87787) containing Halt Protease Inhibitor Cocktail, EDTA-Free (Thermo Fisher Scientific, #87785) and incubated on ice for 20 min. The lysate was centrifuged at 17,000 rcf for 10 min, and the supernatant was combined with NuPAGE LDS Sample Buffer (Thermo Fisher Scientific, NP0007). Protein concentration was determined by Pierce 660 nm Protein Assay (Thermo Fisher Scientific, #22660) and normalized to the lowest concentration among each sample set. […] Chemiluminescent signals were detected by LAS4000 (GE Healthcare) using Amersham ECL Select Western Blotting Detection Reagent (GE Healthcare, #45-000-999), and total protein signals were obtained by Odyssey Imaging System (LI-COR Biosciences) using REVERT Total Protein Stain Kit (LI-COR Biosciences, #926-11010)."}, "Paneth cells [3]": {"system": "Paneth cells", "experiment": "Immunofluorescent imaging of organoids: LYZ+ cells per organoid area", "format": "cell-based, murine", "procedure": "Immunofluorescent imaging. For immunofluorescence staining of organoids, intestinal organoids in Matrigel were fixed with 4% paraformaldehyde, then transferred to centrifuge tube. After washing with PBS, the isolated organoids were permeabilized with 1% Triton X followed by incubation with blocking buffer (1% BSA+3% Donkey Serum+0.2% Triton X in PBS) at RT. The organoids were then stained with primary antibodies and fluorescent dye-labeled secondary antibodies as well as with DAPI. Slides were covered with […]® Mounting Media (VECTOR). The following primary and secondary antibodies were used for the staining: rabbit anti-Lysozyme (1:1000, Thermo Fisher Scientific), rat anti-E-cadherin (1:1000, Thermo Fisher Scientific), Alexa Fluor 488 and 568 secondary antibodies (1:1000, Invitrogen). Images were acquired with a confocal laser scanning microscope (Nikon Eclipse 90i). For the analysis of Lysozyme+ cells per organoid area, the number of counted Lysozyme+ cells were normalized to measured organoid surface area. Image J was used for the data analysis."}, "intestinal organoids": {"system": "intestinal organoids", "experiment": "Population RNA-sequencing of organoids", "format": "cell-based, murine", "conditions": "ENR+CV, ENR+CD or ENR organoids", "procedure": "Population RNA-sequencing. Population RNA-seq was performed using a derivative of the Smart-Seq2 protocol for single cells. In brief, organoid media was aspirated and RLT+BME (Qiagen) was added to each well, and plate shaken for 30 minutes to fully lyse. Lysate was aliquoted into 4 identical fractions and stored at −80° C. until reverse transcription. RNA lysate was thawed and cleaned with a 2.2×SPRI ratio using Agencourt RNAClean XP beads (Beckman Coulter, A63987). RNA-seq was performed on a bulk population of […] using Smart-Seq2 chemistry, starting with a 2.2×SPRI ratio cleanup. After oligo-dT priming, Maxima H Minus Reverse Transcriptase (ThermoFisher EP0753) was used to synthesize cDNA with an elongation step at 52° C. before PCR amplification (15 cycles for tissue, 18 cycles for sorted basal cells) using KAPA HiFi PCR Mastermix (Kapa Biosystems KK2602). Sequencing libraries were prepared using the Nextera XT DNA tagmentation kit (Illumina FC-131-1096) with 250 pg input for each sample. Libraries were pooled post-Nextera and cleaned using Agencourt AMPure SPRI beads with successive 0.7× and 0.8× ratio SPRIs and sequenced with an Illumina 75 Cycle NextSeq500/550v2 kit (Illumina FC-404-2005) with loading density at 2.2 pM, with paired end 35 cycle read structure. Samples were sequenced at an average read depth of 8.44 million reads per sample and a total of 96 samples.\nOrganoid samples were aligned to the Mm10 genome and transcriptome using STAR and RSEM. […] For module scoring with the in vivo Paneth and enteroendocrine cell-defining genes, Applicants used previously published gene sets and computed persample module scores through the Seurat package."}}, "note": "“Also recorded” adds a separate entry of the source.", "data": [{"smiles": "Nc1ncn([C@H]2C[C@H](O)[C@@H](CO)O2)c(=O)n1", "note": "[Decitabine, 5-aza-2′-deoxycytidine]", "values": [{"measurement": "effect on Cch-induced lysozyme secretion (hit identification)", "setting": "[1]", "result": "identified as Paneth cell activators"}, {"measurement": "lysozyme secretion normalized to ATP", "setting": "organoid line", "result": "effects were validated"}, {"measurement": "lysozyme secretion compared with KPT-330", "setting": "organoid line", "result": "outperformed KPT-330"}]}, {"smiles": "CCC(=C/[C@H](C)C/C=C/C(C)=C/[C@@H](C)C(=O)[C@@H](C)[C@H](O)[C@@H](C)C/C(C)=C/C(=O)O)/C=C/[C@@H]1OC(=O)C=C[C@@H]1C", "note": "[Leptomycin B]", "values": [{"measurement": "Paneth cell proportion in organoids", "setting": "Paneth cells [2]; 2 ng/mL Leptomycin B, ENR+CD 6 days", "result": "statistically significant increases in Paneth cell representation"}, {"measurement": "Paneth cell proportion in organoids", "setting": "Paneth cells [2]; 2 ng/mL Leptomycin B, ENR+CD 6 days, listed as leptomycin B", "result": "increased the proportion of PC; also recorded: increasing the proportion of Paneth cells"}, {"measurement": "LYZ abundance per unit protein (Western blotting)", "setting": "lysozyme (LYZ)", "result": "appreciably increase LYZ abundance"}, {"measurement": "proportion of Paneth cells (IF imaging)", "setting": "Paneth cells [3]; 2 ng/mL Leptomycin B, ENR+CD 3 days", "result": "increasing the proportion of Paneth cells"}]}, {"smiles": "C=C1/C(=C\\C=C2/CCC[C@]3(C)[C@@H]([C@H](C)/C=C/[C@@H](O)C4CC4)CC[C@@H]23)C[C@@H](O)C[C@@H]1O", "note": "[Calcipotriene]", "values": [{"measurement": "effect on Cch-induced lysozyme secretion (hit identification)", "setting": "[1]", "result": "identified as Paneth cell activators"}, {"measurement": "lysozyme secretion normalized to ATP", "setting": "organoid line", "result": "effects were validated"}, {"measurement": "lysozyme secretion compared with KPT-330", "setting": "organoid line", "result": "outperformed KPT-330"}]}, {"smiles": "Nc1nc2nc[nH]c2c(=S)[nH]1", "note": "[Thioguanine]", "values": [{"measurement": "effect on Cch-induced lysozyme secretion (hit identification)", "setting": "[1]", "result": "identified as Paneth cell activators"}, {"measurement": "lysozyme secretion normalized to ATP", "setting": "organoid line", "result": "effects were validated"}, {"measurement": "lysozyme secretion compared with KPT-330", "setting": "organoid line", "result": "outperformed KPT-330"}]}, {"smiles": "NC(=O)/C(=C/n1cnc(-c2cc(C(F)(F)F)cc(C(F)(F)F)c2)n1)c1cncnc1", "note": "[KPT-8602]", "values": [{"measurement": "Paneth cell proportion in organoids", "setting": "Paneth cells [2]; 160 nM KPT-8602, ENR+CD 6 days", "result": "statistically significant increases in Paneth cell representation; also recorded: increased the proportion of PC; also recorded: increasing the proportion of Paneth cells"}, {"measurement": "LYZ abundance per unit protein (Western blotting)", "setting": "lysozyme (LYZ)", "result": "appreciably increase LYZ abundance"}, {"measurement": "proportion of Paneth cells (IF imaging)", "setting": "Paneth cells [3]; 160 nM KPT-8602, ENR+CD 3 days", "result": "increasing the proportion of Paneth cells"}, {"measurement": "secretory cell identity (Paneth, goblet, EEC) from bulk transcripts", "setting": "intestinal organoids", "result": "increase secretory cells (Paneth, goblet, and EEC)"}]}]}
